In patent US8845999B2 (The Regents of the University of California, priority 2005, dated 2014):

Columns and labels:
SGLTs [1] = assay: Whole body PET scan of human subjects; type: in vivo; settings: patient with Glucose-Galactose-Malabsorption (missing functional SGLT1), FIG. 6
Experimental: For a 50-70 kg person, 10 mC of methyl 4-deoxy-4-[^18F]fluoro-D-glucopyranoside dissolved in <1 ml saline is injected intravenously, and the distribution of the tracer is followed dynamically in whole body PET scans for up to 2 hours (up to 8 scans at different time intervals). SGLT activity in organs and tissues is determined from the tracer uptake. The anatomical location of tracer uptake in both normal subjects and cancer patients is determined using CT scans.
FIGS. 4 and 5 are nonlimiting examples of 2-[^18F]-FDG and Methyl 4[^18F]-FDG scans, respectively, of the same human subject.
FIG. 6 is a nonlimiting example of a whole body PET scan of a patient with Glucose-Galactose-Malabsorption (missing functional SGLT1 in their body), after being injected with Me-[18F]-4FDG.

SGLT1 = molecular target: T1, SGLT1 (Homo sapiens, UniProt P13866); assay: Affinity for SGLT1; type: biochemical
T1 sequence (P13866 1-664): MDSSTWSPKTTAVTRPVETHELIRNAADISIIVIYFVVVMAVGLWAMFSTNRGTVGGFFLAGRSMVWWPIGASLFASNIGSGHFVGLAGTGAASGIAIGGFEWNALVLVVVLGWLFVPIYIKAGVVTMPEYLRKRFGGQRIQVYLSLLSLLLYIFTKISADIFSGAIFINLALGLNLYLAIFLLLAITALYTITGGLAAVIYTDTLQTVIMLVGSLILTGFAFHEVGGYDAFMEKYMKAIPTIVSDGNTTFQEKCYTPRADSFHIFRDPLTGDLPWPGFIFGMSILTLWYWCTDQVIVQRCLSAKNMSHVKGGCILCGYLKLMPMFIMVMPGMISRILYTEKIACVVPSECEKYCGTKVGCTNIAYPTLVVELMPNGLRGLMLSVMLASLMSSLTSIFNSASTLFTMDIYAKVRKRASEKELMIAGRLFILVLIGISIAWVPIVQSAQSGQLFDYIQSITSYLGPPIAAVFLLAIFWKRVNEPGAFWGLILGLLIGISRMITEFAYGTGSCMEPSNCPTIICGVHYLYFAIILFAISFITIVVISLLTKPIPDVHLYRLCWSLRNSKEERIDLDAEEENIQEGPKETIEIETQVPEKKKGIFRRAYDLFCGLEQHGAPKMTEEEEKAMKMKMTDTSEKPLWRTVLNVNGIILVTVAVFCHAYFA
Description: A [^11C]-methyl-D-glucoside has been synthesized and biologically evaluated as a tracer of sodium dependent glucose transporters. […] A commentary on this paper was published in the same issue of the journal. […] In addition, three ^18F-fluoro-n-alkyl glucosides have been synthesized and evaluated as potential substrates for sodium/glucose cotransporters. […] There are limitations with these probes in that the lifetime of [^11C] is shorter than that of [^18F]
Optionally, additional information can be obtained by also administering one or more pharmacological or other agents to the animal, and monitoring the effect of the agent(s) on tracer uptake and distribution. Nonlimiting examples of suitable agents, include sodium ion, glucose, galactose, and phlorizin. […] Any therapeutic agent can also be used to evaluate its potential role and in vivo activity on SGLTs in various organs, using in vivo competitive kinetics with the radiolabeled tracer.

SGLTs [2] = assay: Whole body PET scan of Vervet monkey; type: in vivo; settings: FIG. 3
Description: Scans can be conducted both with and without administering one or more pharmacological agents, e.g., sodium, phlorizin, glucose, galactose, etc.
FIG. 3 is a nonlimiting example of a methyl 4-[^18F]-FDG whole body PET scan of a Vervet monkey.

[3] = system: sodium-dependent glucose transporters (SGLTs); assay: Micro-PET tests in rodents and PET tests in Vervet monkeys and human volunteers: substrate specificity; type: in vivo; settings: both anomeric forms
Description: A nonlimiting example of a radiolabeled tracer according to the present invention is methyl 4-deoxy-4-[^18F]fluoro-D-glucopyranoside (“Me-4-[^18F]-FDG”), synthesized in either of its two anomeric forms, alpha-methyl 4-[^18F]-FDG and beta-methyl 4-[^18F]-FDG, or as a racemic mixture. […] For example, Me-4-[^18F]-FDG is not a substrate for GLUT1 in the blood brain barrier. It is a novel, high affinity tracer for SGLTs in those cells expressing SGLTs.

SGLTs [4] = assay: MicroPET images of rat's brain after intravenous injection of radiofluorinated glucose derivatives; settings: same animal, images 50-70 min after intravenous injection, FIG. 7
Experimental: A bolus of a radiolabeled tracer is administered to a non-human primate, rodent, or other non-human mammal, intravenously or orally, and the distribution of tracer transport activity is followed by radiographic means, e.g., PET, microPET and/or SPECT. For PET, an intravenous dose of the tracer contains ˜200 μC/Kg (body weight) methyl 4-[^18F]fluoro-4-deoxy-D-glucopyranoside dissolved in <1 ml saline. […] The identity of each organ and tissue taking up the tracer is confirmed by CT scans.
FIG. 7 presents MicroPET images of a rat's brain after injection of radiofluorinated glucose derivatives. […] These experiments were performed in the same animal at three different occasions. […] The images were acquired using a Concorde 220 microPET camera (Siemens/CTI, Knoxville, Tenn.). The animal was kept under anesthesia with 2% isoflurane in oxygen during all three experiments. Injectable solutions of all radiotracers were prepared in normal saline (0.9% NaCl).

For COC1O[C@H](CO)[C@@H]([18F])[C@H](O)[C@H]1O (stereo partly drawn) [Me-4-[^18F]-FDG, methyl 4-deoxy-4-[^18F]fluoro-D-glucopyranoside], the “excretion into the urinary bladder, whole body PET” value (SGLTs [1]) was “excretion of the tracer into the urinary bladder”, the “affinity for SGLT1” value (SGLT1) was 50 µM and the “tracer distribution, whole body PET” value (SGLTs [2]) was “accumulated in the liver, heart, and kidneys, but not in the brain and little in the urinary bladder”. The “substrate for SGLTs / GLUTs” value [3] was “substrate for sodium-dependent glucose transporters (SGLTs), but not a substrate for GLUTs” and the “brain uptake / crossing of the blood-brain barrier, microPET” value (SGLTs [4]) was “lack of brain uptake”.
